The values below come from patent US20260207722A1, “COMBINATION FOR TREATMENT OF AUTOIMMUNE DISEASES” (Bonsai Biotherapeutics AB, priority 2023, published 2026).

The test relates to experimental autoimmune myasthenia gravis (EAMG). Kind of test: EAMG clinical score, rats treated with TOL2 and/or diclofenac (Example 2). Conditions: treatment 40 days after EAMG induction; diclofenac 10 mg/kg ip; TOL2 500 μg iv alone, 250 μg iv in the combination; vs PBS-treated controls; FIG. 3A. The test is classed as in vivo, rat.

Take `O=C(O)Cc1ccccc1Nc1c(Cl)cccc1Cl` [diclofenac]: the EAMG score entry is “did not show any improvement”.
